{"source": "patent US9365541B2", "about": "“Compounds for use in the treatment of parasitic diseases” (IRBM—SCIENCE PARK S.P.A., priority 2012, dated 2016)", "key": {"[1]": {"test_system": "histone 4 acetylated lysine 8 (H4K8Ac)", "experiment": "Histone hyperacetylation assay (Western blot H4K8Ac) in P. falciparum 3D7 infected erythrocytes", "type": "cell-based", "settings": "Plasmodium falciparum, Erythrocyte, 20 nM to 10 uM, 14-16 hours, read-out: estimated EC50 in the hyperacetylation assay", "method": "FIG. 1. Hyperacetylation of P. falciparum histones. Plasmodium falciparum 3D7 infected erythrocytes (5-7% parasitemia) were cultured for 14-16 hours in vitro with increasing concentrations (6 nM to 3 uM) of (A): compound (S)-N-(7-(methylamino)-1-(5-(naphthalen-2-yl)-1H-imidazol-2-yl)-7-oxoheptyl)quinuclidine-4-carboxamide (Table 2, entry 126) or with vehicle (0.01% DMSO); increasing concentrations (20 nM to 10 uM) of (B): compound (S)-N-(1-(5-(4-(1H-pyrazol-5-yl)phenyl)-1H-imidazol-2-yl)-7-(methylamino)-7-oxoheptyl)thiazole-5-carboxamide (Table 2, entry 221; Example 4, D9). Beta-actin was used as loading control (see materials and methods). H4K8Ac: antibody directed against acetylated lysine 8 of histone 4. […]\n(§1) The effect of test compounds on histone acetylation status was determined by incubating Plasmodium falciparum 3D7 infected erythrocytes or HeLa cells with different concentrations of drugs or vehicle (0.01% DMSO) alone. […] Supernatants were analyzed by 12% SDS-PAGE and transferred onto PVDF (Immun-Blot PVDF Membrane for Protein Blotting, BIORAD, Cat: No 162-0177) membranes. […]"}, "[2]": {"test_system": "histone 4 acetylated lysine 8 (H4K8Ac)", "experiment": "Histone hyperacetylation assay (Western blot H4K8Ac) in HeLa cells", "type": "cell-based, human", "settings": "data not shown", "method": "FIG. 2. Hyperacetylation of HeLa's histones. HeLa cells were incubated in vitro for 14-16 hours with increasing concentrations (49 nM to 25 uM) of compound (S)-N-(7-(methylamino)-1-(5-(naphthalen-2-yl)-1H-imidazol-2-yl)-7-oxoheptyl)quinuclidine-4-carboxamide (Table 2, entry 126) or were treated with vehicle (0.01% DMSO). Beta-actin was used as loading control (see materials and methods). H4K8Ac: antibody directed against acetylated lysine 8 of histone 4.\nAfter result normalization using positive and negative controls, compound potency is determined by fitting the following equation: % inh=Ymin+(Ymax−Ymin)/(1+(X/EC50)^slope)) Where: • Ymin=minimum percentage effect • Ymax=maximum percentage effect • EC50=the concentration of the compound at which 50% effect is reached • Slope=the slope of the curve calculated at the EC50 Histone Hyperacetylation and Immunodetection of Altered Histone Modifications Assay\nas §1, with “alone. Infected erythrocytes were collected at 14-16 hours post treatment and lysed in saponin (0.15%).” for “alone.”"}}, "data": [{"compound": "CNC(=O)CCCCC[C@H](NC(=O)c1cncs1)c1ncc(-c2ccc(-c3ccn[nH]3)cc2)[nH]1", "note": "[D9, (S)-N-(1-(5-(4-(1H-pyrazol-5-yl)phenyl)-1H-imidazol-2-yl)-7-(methylamino)-7-oxoheptyl)thiazole-5-carboxamide]", "values": [{"measurement": "EC50", "setting": "[1]", "result": 350, "unit": "nM"}, {"measurement": "concentration up to which no change in histone acetylation was observed in HeLa cells", "setting": "[2]", "result": "> 10", "unit": "µM"}]}]}
